According to ChEMBL document CHEMBL1201862, “PubChem BioAssay data set” (2004):
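Growth conditions: 96-well plates. Treatment: test compound, 48 hours, 5 concentrations. Analysis: linear interpolation between bracketing concentrations; unreached endpoints set to highest concentration. GI50 is the concentration that inhibits growth by half.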 Calls of active or inactive are those of the source. Rule as the data show it: active = GI50 up to about 1.1 µM and inactive = higher.

Key:
Experiment in all cases: NCI anticancer screen, dose series, 48 h
A549 = tested on: A549
HOP-92 = tested on: HOP-92
SN12C = tested on: SN12C
SK-MEL-28 = tested on: SK-MEL-28
UACC-257 = tested on: UACC-257
A498 = tested on: A498
SNB-75 = tested on: SNB-75
SK-MEL-2 = tested on: SK-MEL-2
HCT-116 = tested on: HCT-116
U-251 = tested on: U-251
OVCAR-4 = tested on: OVCAR-4
OVCAR-3 = tested on: OVCAR-3
OVCAR-5 = tested on: OVCAR-5
SNB-19 = tested on: SNB-19

Row | Structure (SMILES) | GI50 (A549) | GI50 (HOP-92) | GI50 (SN12C) | GI50 (SK-MEL-28) | GI50 (UACC-257) | GI50 (A498) | GI50 (SNB-75) | GI50 (SK-MEL-2) | GI50 (HCT-116) | GI50 (U-251) | GI50 (OVCAR-4) | GI50 (OVCAR-3) | GI50 (OVCAR-5) | GI50 (SNB-19)
1 | Cc1cc(N(CCC#N)CCC#N)ccc1/C=C/C(=O)Nc1cccc(Cl)c1 | > 100 µM (inactive) | 43.4 µM (inactive) | > 100 µM (inactive) | > 100 µM (inactive) | > 100 µM (inactive) | > 100 µM (inactive) | 89.9 µM (inactive) | > 100 µM (inactive) | > 100 µM (inactive) | > 100 µM (inactive) | 58.6 µM (inactive) | > 100 µM (inactive) | > 100 µM (inactive) | > 100 µM (inactive)
2 | O=C1C(Br)=CC2(C=C1Br)CCNC1=C2C(=O)c2ccccc2C1=O | 22.8 µM (inactive) |  | 6.68 µM (inactive) | > 10 µM (inactive) | 14.1 µM (inactive) |  | > 100 µM (inactive) | 14.9 µM (inactive) | 4.13 µM (inactive) |  |  | 29.6 µM (inactive) |  | 
3 | CN(C)CCCN1N=Nc2cccc3cccc1c23 | > 100 µM (inactive) | 90.6 µM (inactive) | 63.8 µM (inactive) | > 100 µM (inactive) | > 91.8 µM (inactive) | 78.7 µM (inactive) | > 100 µM (inactive) | > 100 µM (inactive) | 28.8 µM (inactive) | > 74.3 µM (inactive) | 20.3 µM (inactive) | > 100 µM (inactive) | > 91.4 µM (inactive) | > 100 µM (inactive)
4 | Cc1cc(CC(O)c2ccc(Cl)c(Cl)c2)nc(O)n1 (configuration not stated) | 21.8 µM (inactive) | 18 µM (inactive) | 86.3 µM (inactive) | > 100 µM (inactive) | > 100 µM (inactive) | 53.8 µM (inactive) | 17.7 µM (inactive) | 61.7 µM (inactive) | 19.6 µM (inactive) | 29.1 µM (inactive) | 48.9 µM (inactive) | 32.2 µM (inactive) | 69 µM (inactive) | 30.5 µM (inactive)
5 | CCCCCCCCCCCCCCCCP(=O)(OC)OC | 17.7 µM (inactive) | 16.4 µM (inactive) | 17.2 µM (inactive) | 17.7 µM (inactive) | 17.5 µM (inactive) |  | 16.6 µM (inactive) | 16.4 µM (inactive) | 18.9 µM (inactive) | 17.9 µM (inactive) | 20.7 µM (inactive) | 17.8 µM (inactive) | 13.9 µM (inactive) | 15.2 µM (inactive)
6 | Cc1nc(NC(=S)NC(=O)c2ccc(Cl)c(Cl)c2)sc1C(=O)/C=C/c1ccccc1[N+](=O)[O-] | 25.3 µM (inactive) | 0.989 µM (active) | 21.6 µM (inactive) | 25.4 µM (inactive) | 30.1 µM (inactive) |  |  | 18.4 µM (inactive) | 20.7 µM (inactive) | 17.9 µM (inactive) | 26.8 µM (inactive) | 22.1 µM (inactive) | > 10 µM (inactive) | 21.1 µM (inactive)
7 | COc1ccccc1NC(=O)C(CC(C(=O)Nc1ccccc1OC)/C(C)=N/NC(=O)c1ccccc1O)/C(C)=N/NC(=O)c1ccccc1O (configuration not stated) | 82.4 µM (inactive) | 26 µM (inactive) | > 100 µM (inactive) | > 100 µM (inactive) | > 100 µM (inactive) | 65 µM (inactive) | 96.6 µM (inactive) | > 100 µM (inactive) |  | 59 µM (inactive) | 51.8 µM (inactive) | 54.1 µM (inactive) | > 100 µM (inactive) | 61.7 µM (inactive)
8 | O=[N+]([O-])c1cccc(C2=NN(c3ccccc3)C3c4ccccc4OCC23)c1 (configuration not stated) | > 100 µM (inactive) | 52.8 µM (inactive) |  | > 100 µM (inactive) | > 100 µM (inactive) | > 100 µM (inactive) | > 100 µM (inactive) | > 100 µM (inactive) | 27.2 µM (inactive) | > 100 µM (inactive) |  | > 100 µM (inactive) | > 100 µM (inactive) | > 100 µM (inactive)
9 | CC1(C)CC[C@]2(C(=O)O)CCC3(C)C(=CCC4[C@@]5(C)CC[C@H](OC6OCC(O)C(O)C6OC6OC(CO)C(O)C(O)C6O)C(C)(C)C5CC[C@]43C)C2C1 (some centres not stated) | 1.86 µM (inactive) | 1.84 µM (inactive) | 1.89 µM (inactive) | 2.33 µM (inactive) | 2.94 µM (inactive) | 2.18 µM (inactive) | 2.2 µM (inactive) |  | 2.81 µM (inactive) | 1.93 µM (inactive) | 1.57 µM (inactive) | 2.12 µM (inactive) | 2.41 µM (inactive) | 1.93 µM (inactive)
10 | C/C(CC(=O)Nc1cc(C)ccc1C)=N/N=C(N)N | > 100 µM (inactive) | > 100 µM (inactive) |  | > 100 µM (inactive) | > 100 µM (inactive) | > 100 µM (inactive) | > 100 µM (inactive) | > 100 µM (inactive) | > 100 µM (inactive) | > 100 µM (inactive) |  | > 100 µM (inactive) | > 100 µM (inactive) | 
11 | CCCCCCn1c(SCC)c2ccccc2c1-c1nc(F)nc(F)n1 | > 100 µM (inactive) | > 100 µM (inactive) | > 100 µM (inactive) | > 100 µM (inactive) | > 100 µM (inactive) |  | 73.5 µM (inactive) | > 100 µM (inactive) | > 100 µM (inactive) | > 100 µM (inactive) | > 100 µM (inactive) | > 100 µM (inactive) | > 100 µM (inactive) | > 100 µM (inactive)
